Data published in patent US12410124B2 (priority 2019, dated 2025).
Where two headings read alike, the source gives them in different places.

Legend:
midbrain pp38 = assay: Midbrain pp38 protein expression in MPTP Parkinson's disease model mouse (western-blotting); type: in vivo; settings: midbrain total protein, GAPDH internal reference, gavage 21 days after MPTP modeling
Experimental: (§1) Neurotoxins can be used to establish PD animal models. Currently, 1-methyl-4-phenyl-1,2,3,6-tetrahydropyridine (MPTP) is the sole synthetic toxin which is recognized to induce PD symptoms in human and non-human primates and in mice. Using MPTP subacute modeling method, C57BL/6J male mice were intraperitoneally injected with MPTP 30 mg/kg, once a day for 5 consecutive days. The experiment animals were divided into blank control group, MPTP model group, and compound treatment group. For the […] compound treatment group, the compound was administrated by gavage for 21 consecutive days after the completion of modeling; for the MPTP model group, the normal saline was administrated by gavage for 21 consecutive days after the completion of modeling; and for the blank control group, the normal saline was first intraperitoneally injected for 5 days, and then administrated by gavage for 21 days.
(§2) The p38 mitogen-activated protein kinase (p38 MAPK) is expressed in both neurons and glial cells, and is the intersection point of neuron-glial cell network information regulations. The activation of p38 signaling pathway is an important initiator of neuronal degeneration, which continuously induces the apoptosis of dopaminergic neurons in multiple ways. It has become a research hotspot for the treatment of PD. Studies have shown that the protective mechanism of CAPE against the death of primary cultured cerebellar granule neurons induced by glutamate lies in inhibiting the activation of p38 phosphorylation and in turn inhibiting the activation of the caspase 3 apoptotic pathway to prevent neuronal apoptosis. Therefore, the MPTP-induced PD mouse model can be used to investigate the inhibitory effect of the target compounds on the activation of p38 phosphorylation on the overall animal level.
Half of experiment mice in each group were taken to extract the total midbrain protein, and the change in the midbrain phosphorylated p38 protein expression was determined by western-blotting using GAPDH as the internal reference. The experiment included blank control group, MPTP model group, positive control group (caffeic acid phenethyl ester, CAPE), prototype control group (styryl sulfone compounds 3B, 3C, 3D, and 3G, whose structures are shown as above), and target compound group.

substantia nigra pp38 = assay: Substantia nigra pp38 protein expression in MPTP Parkinson's disease model mouse (immunofluorescence); type: in vivo; settings: percentage of mean intensity of blank control group, gavage 21 days after MPTP modeling
Experimental: as §1, §2
(§3) Half of experiment mice in each group were taken to separate the midbrain after perfusion and fixation. The tissue was trimmed, and the substantia nigra-striatum area was taken to prepare paraffin sections. The double immunofluorescence staining for TH and phosphorylated p38 was performed to observe the coexpression of TH and phosphorylated p38, for the statistics of the change in the phosphorylated p38 protein expression. The experiment included blank control group, MPTP model group, positive control group (caffeic acid phenethyl ester, CAPE), prototype control group (styryl sulfone compounds 3B, 3C, 3D, and 3G, whose structures are shown as above), and target compound group.

GCLC = assay: Midbrain GCLC expression in MPTP Parkinson's disease model mouse (western blot); type: in vivo; settings: for Expression (GCLC/GAPDH): midbrain, MPTP Parkinson's disease model mouse, western blot
Experimental: as §1
Oxidative stress is an important pathogenic mechanism of PD. Dopaminergic neurons are more sensitive to oxidative stress and are more susceptible to oxidative stress damage. Glutathione (GSH) is an important antioxidant substance in the cell, and glutamate cysteine ligase (GCL) is the rate-limiting enzyme for GSH synthesis, which is composed of catalytic subunit (GCLC) and regulatory subunit (GCLM). The increase of GCLC expression can promote the synthesis of GSH and enhance the ability of tissue cells against oxidative stress. GCL, a phase II enzyme, plays an important protective role by catalyzing the conversion of free radicals into non-toxic products and increasing their water solubility to facilitate the elimination of free radicals, and maintain the redox balance in the body. It plays an important role in the process of protecting cells against oxidative stress damage. The activation of p38 protein phosphorylation has a negative regulatory effect on phase II enzymes. […] Using GCLC as an indicator, the inhibitory effect of the target compounds on MPTP-induced oxidative stress damage in PD mice can be investigated.
GCLC is expressed in astrocytes, microglial cells, and neurons. The total proteins of the midbrain tissue of mice in each experiment group were extracted, to determine the expression of phase II enzyme GCLC in the midbrain of mice by western blot using GAPDH as the internal reference. The experiment included blank control group, MPTP model group, positive control group (caffeic acid phenethyl ester, CAPE), prototype control group (styryl sulfone compounds 3B, 3C, 3D), and 3G, whose structures are shown as above), and target compound group.

primary glial cells = assay: Inhibition of the NO release of primary glial cells induced by LPS; type: cell-based, rat; settings: for inhibition at 2 µM / inhibition at 5 µM / inhibition at 10 µM / inhibition at 20 µM: Rattus norvegicus, Glial cell, read-out: NO inhibition (%)
Source text: Lipopolysaccharide (LPS) is a main component of the cell wall of Gram-negative bacteria. It is a potent inflammatory factor that can directly activate gliocytes, and the activated gliocytes secrete a large amount of inflammation mediators such as tumor necrosis factor, interleukin, and nitric oxide, thus causing inflammatory reactions and oxidative stress reactions and eventually leading to neuronal denaturation and death. In recent years, the targeted injection of LPS into rat substantia nigra or striatum to induce neuroinflammation can successfully establish PD models, which can simulate most of the clinical manifestations and pathological features of PD, and are used for the study on the neuroinflammation mechanism associated with PD. LPS-induced primary glial cell PD inflammation model is suitable for the preliminary anti-neuroinflammation screening for neuroprotective agents. LPS is used to directly activate primary glial cells to simulate the pathogenesis mechanism of neuroinflammation, and the inhibitory activity of the target compounds on the inflammatory response of primary glial cells can be investigated.
The materials were taken from the brain tissue of fetal rat, for primary glial cell culture. At 7 to 10 days of the culture, LPS was added for the activation of nitric oxide (NO) release in glial cells. When a target compound was added, the reduction value for NO content in the cell culture medium was measured, to evaluate the anti-neuroinflammation activity of the compound. The experiment included blank control group, LPS model group, positive control group (caffeic acid phenethyl ester, CAPE), prototype control group (styryl sulfone compounds 3B, 3C, 3D, and 3G, the structures of which compounds are shown as above), and target compound group.

substantia nigra TH = assay: Substantia nigra TH expression in MPTP Parkinson's disease model mouse (immunofluorescence); type: in vivo; settings: percentage of mean intensity of blank control group, gavage 21 days after MPTP modeling
Experimental: as §1
The main cause of PD lies in the pathological changes in the substantia nigra-striatum projection system of the brain and the progressive degeneration and loss of dopaminergic neurons. Tyrosine hydroxylase (TH) is the first enzyme in the biosynthesis of catecholamine neurotransmitters, as well as the first rate-limiting enzyme in the dopamine synthesis. It plays an important role in the synthesis and metabolism of the neurotransmitter DA. The TH in PD animal models and patients has a wide range of abnormal changes, from the gene expression to the enzyme protein content and enzyme activity. The detection of the TH expression in the midbrain and substantia nigra of PD model mice can be used to evaluate the neuroprotective activity of the compound.
as §3, with “TH” for “double”, “staining” for “staining for TH and phosphorylated p38”, “performed” for “performed to observe the coexpression of TH and phosphorylated p38, for the statistics of the change”, “brain sections of mice in each group. […]” for “phosphorylated p38 protein expression.”

Structure (SMILES)	Expression (pp38/GAPDH) (midbrain pp38)	Expression (Immunofluorescence intensity %) (substantia nigra pp38) [%]	midbrain GCLC expression compared with the styryl sulfone prototype compounds (GCLC)	Expression (GCLC/GAPDH) (GCLC)	NO inhibitory rate compared with the styryl sulfone prototype compounds (primary glial cells)	inhibition at 2 µM (primary glial cells; 2 μM) [%]	inhibition at 5 µM (primary glial cells; 5 μM) [%]	inhibition at 10 µM (primary glial cells; 10 μM) [%]	Expression (Immunofluorescence intensity %) (substantia nigra TH) [%]	inhibition at 20 µM (primary glial cells; 20 μM) [%]	inhibition at 5 µM (primary glial cells) [%]	inhibition at 10 µM (primary glial cells) [%]	inhibition at 20 µM (primary glial cells) [%]	inhibition at 2 µM (primary glial cells) [%]
CCN(CC)C(=O)Oc1ccc(/C=C/S(=O)(=O)Cc2ccc(C(C)(C)C)cc2)cc1OC(=O)N(CC)CC [Compound G1-1, (E)-4-{2-[(4-t-butylphenyl)mesyl]ethenyl}-1,2-phenylenebis(diethylcarbamate)]	0.33 ± 0.07	82.16 ± 8.10	significantly higher	1.05 ± 0.04	equivalent or higher inhibitory rate	27.2 ± 3.98	64.2 ± 3.25	85.8 ± 5.01	77.13 ± 7.40					
CC(Br)C(Br)COc1cc(/C=C/S(=O)(=O)CCc2ccc(OCC(F)(F)F)cc2)ccc1OC(=O)Nc1ccsc1 (centres unmarked) [Compound K1-3, (E)-2-(2,3-dibromobutoxy)-4-{2-[4-(2,2,2-trifluoroethoxy)phenylethylsulfonyl]ethenyl}phenyl-N-(thien-3-yl)carbamate]	0.35 ± 0.06	73.08 ± 18.10		1.13 ± 0.08			33.3 ± 6.71	54.2 ± 4.06	87.28 ± 4.11	81.4 ± 4.29				
CN(C)c1ccc(CC(=O)Oc2cc(/C=C/S(=O)(=O)C(Br)c3ccc(Cc4ccc(N(C)C)cc4)cc3)ccc2OC(=O)N2CCCC2C(F)(F)F)cc1 (centres unmarked) [Compound M1-5]	0.29 ± 0.06	87.45 ± 11.05		1.35 ± 0.08			21.2 ± 3.12	45.6 ± 4.28	87.24 ± 2.97	66.7 ± 4.02				
CC(C)(C)c1ccc(CS(=O)(=O)/C=C/c2ccc(O)c(O)c2)cc1 [Compound 3G, (E)-4-{2-[(4-t-butylphenyl)mesyl]ethenyl}benzene-1,2-diol, reference compound]	0.69 ± 0.22	118.25 ± 10.60		0.57 ± 0.09			41.2 ± 3.01	59.6 ± 2.44	76.08 ± 7.08	85.8 ± 3.88				
O=C(/C=C/c1ccc(O)c(O)c1)OCCc1ccccc1 [Positive control group, caffeic acid phenethyl ester, reference compound]	0.58 ± 0.12	139.72 ± 25.32		0.77 ± 0.06		31.5 ± 5.43	45.2 ± 3.85	77.1 ± 4.37	79.21 ± 6.59					
CC(C)N(c1ccc(CCS(=O)(=O)/C=C/c2ccc(OC(=O)N(C)c3ccc(I)cc3)c(OCCOCc3ccccc3)c2)cc1)C(C)C [Compound A1-3, (E)-2-(2-benzyloxyethoxy)-4-{2-[4-(N,N-diisopropylamino)phenylethylsulfonyl]ethenyl}phenyl-N-(4-iodophenyl)-N-methylcarbamate]	0.27 ± 0.08	58.19 ± 12.07		0.84 ± 0.04					89.68 ± 5.69		19.6 ± 3.67	43.2 ± 2.36	62.1 ± 4.73	
COc1ccc(CC(=O)Oc2ccc(/C(C)=C/S(=O)(=O)/C=C/c3ccc(OC(=O)N(C)C)c(O[Si](C)(C)CCl)c3)cc2)cc1 [Compound P1-7, 4-{(E)-1-[(E)-3-(chloromethyldimethylsiloxy)-4-(N,N-dimethylcarbamoyloxy)styrylsulfonyl]prop-1-en-2-yl}phenyl-2-(4-methoxyphenyl) acetate]	0.40 ± 0.04	77.29 ± 13.06		0.87 ± 0.08					88.07 ± 5.03		21.3 ± 4.43	41.2 ± 1.95	71 ± 3.67	
COCCN(C)C(=O)Oc1cc(/C=C/S(=O)(=O)CCc2cccc(-c3ccc(C)o3)c2)ccc1OC(C)=O [Compound J1-4, (E)-2-[N-(2-methoxyethyl)-N-methylcarbamoyloxy]-4-{2-[3-(5-methylfur-2-yl)phenylethylsulfonyl]ethenyl}phenyl acetate]	0.41 ± 0.08	100.62 ± 13.35		1.24 ± 0.10					88.65 ± 5.41		40.9 ± 3.94	69.7 ± 5.85		24.8 ± 5.02
COc1cc(/C=C/S(=O)(=O)Cc2cc(OC)c(OC)c(OC)c2)ccc1OC(=O)N(c1ccccc1)c1ccccc1 [Compound K3-3, (E)-2-methoxy-4-{2-[(3,4,5-trimethoxyphenyl)mesyl]ethenyl}-phenyl-N,N-diphenylcarbamate]	0.55 ± 0.08	111.17 ± 9.62		0.86 ± 0.04			17.6 ± 3.24	40.6 ± 3.11	98.53 ± 3.08	72.5 ± 6.08				
